This is an account of results in patent publication US20250340863A1, “POLYPEPTIDE-ENCODED LIBRARY AND SCREENING METHOD USING SAME” (WHOLESOME FUTURE LIMITED, priority 2022, published 2025).

Structures are written as SMILES.

The assay has as its target T1, HDAC6 (Homo sapiens, UniProt Q9UBN7).
T1 construct: made in house; host or cells: E. coli BL21 (DE3), pET-28a plasmid
T1 sequence (Q9UBN7 1-1215): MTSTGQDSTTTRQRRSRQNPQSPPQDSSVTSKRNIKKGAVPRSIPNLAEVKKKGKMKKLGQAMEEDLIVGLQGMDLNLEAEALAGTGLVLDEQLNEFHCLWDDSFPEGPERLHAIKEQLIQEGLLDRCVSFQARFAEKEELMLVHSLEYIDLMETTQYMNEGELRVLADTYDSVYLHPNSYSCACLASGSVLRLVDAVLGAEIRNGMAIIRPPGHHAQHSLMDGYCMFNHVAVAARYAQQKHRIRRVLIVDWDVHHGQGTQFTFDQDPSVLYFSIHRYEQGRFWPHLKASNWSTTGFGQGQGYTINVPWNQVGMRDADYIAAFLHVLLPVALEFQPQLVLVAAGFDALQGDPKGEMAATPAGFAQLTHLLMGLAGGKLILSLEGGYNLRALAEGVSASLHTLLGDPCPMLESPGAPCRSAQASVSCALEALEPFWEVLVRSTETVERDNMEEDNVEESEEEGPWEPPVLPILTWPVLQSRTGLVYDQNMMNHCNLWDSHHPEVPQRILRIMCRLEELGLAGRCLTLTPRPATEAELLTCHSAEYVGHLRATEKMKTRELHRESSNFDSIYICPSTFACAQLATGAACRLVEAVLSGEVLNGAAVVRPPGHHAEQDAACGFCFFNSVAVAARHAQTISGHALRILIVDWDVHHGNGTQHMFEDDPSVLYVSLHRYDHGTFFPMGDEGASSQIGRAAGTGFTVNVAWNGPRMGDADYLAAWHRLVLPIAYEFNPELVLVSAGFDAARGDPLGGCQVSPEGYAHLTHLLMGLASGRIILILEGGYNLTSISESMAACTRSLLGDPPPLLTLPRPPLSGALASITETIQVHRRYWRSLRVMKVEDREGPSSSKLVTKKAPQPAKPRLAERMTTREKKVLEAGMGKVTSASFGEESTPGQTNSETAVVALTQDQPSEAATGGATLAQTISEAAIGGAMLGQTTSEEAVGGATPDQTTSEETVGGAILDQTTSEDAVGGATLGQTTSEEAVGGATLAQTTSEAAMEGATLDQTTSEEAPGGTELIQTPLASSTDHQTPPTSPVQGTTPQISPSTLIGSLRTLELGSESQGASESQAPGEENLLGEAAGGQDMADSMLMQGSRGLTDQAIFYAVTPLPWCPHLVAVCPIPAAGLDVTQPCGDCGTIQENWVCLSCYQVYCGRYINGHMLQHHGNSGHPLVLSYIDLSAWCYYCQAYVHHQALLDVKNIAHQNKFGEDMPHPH
The assay is described as follows: HDAC6 enzyme inhibition, fluorescence assay. The following applies: for IC50: 7 concentrations, 4-fold dilution from 250 nM, 4 hours substrate incubation at room temperature; for Hill Slope: Hill slope of fitted dose-effect curve (GraphPad Prism); for Emax: top of fitted dose-effect curve of inhibition rate (GraphPad Prism). Type of assay: biochemical. How it is done:
The compounds to be tested were balanced to room temperature, and the compounds were diluted 4 times with DMSO in a 384-well plate, with a starting working concentration of 250 nM and a total of 7 concentration gradients. 250 nl of the diluted drug solution was transferred to the 384-well reaction plate using Echo 550, where 250 nl of DMSO was transferred to the control wells Max and Min wells: the HDAC6 enzyme stock solution was diluted to 1.67× with 1× enzyme reaction system buffer solution; the reaction substrate was diluted to 2.5× with 1× enzyme reaction system buffer solution: 15 μl of the above diluted enzyme working solution was added to each reaction well, and 15 μl of 1× enzyme reaction system buffer solution was added to the Min well. Incubate at room temperature for 15 min; add 10 μl of the above-diluted enzyme reaction substrate to each reaction well and incubate at room temperature for 4 hours to allow the reaction to proceed fully; add 3.5×Trypsin reaction stop solution to each reaction well and incubate at 37° C. for 90 min to terminate the reaction; read the fluorescence signal at the end of the reaction on the microplate reader.
The calculation formula for the inhibition rate of the compound on HDAC6 is as follows:
Where […] is the mean of the detection values of the sample wells of each Max well (only DMSO and enzyme); […] represents the average value of the detection values of each Min well (without enzyme); Sample Signal is the mean of the detection values of each compound-treated well. The dose-effect curve was fitted using GraphPad Prism software, and the IC50 of the compound on enzyme inhibition was calculated (as shown in Table 5).

One may read the IC50 as the point on the concentration scale where inhibition reaches its midpoint. A higher IC50 goes with weaker potency. What is called Emax is the greatest response seen or fitted, relative to the assay's reference. With `O=C(OCC1CCCCC1)c1ccc(COC(=O)C2COC(O)CN2C(=O)C(=O)c2cc3ccccc3[nH]2)nc1` (stereo not drawn) [Compound 1], the half-inhibitory concentration (IC50) was 0.63 nM, the “Hill Slope” value stood at 1.2 and the Emax was 96%.
The like results for `O=C(OCc1ccccn1)C1CCC(COC(=O)C2C[Se]C(O)CN2S(=O)(=O)c2ccccc2)CC1` (stereo not drawn) [Compound 2] were, in that order, 0.85 nM, 1.1 and 99%.
Taken in the same sequence, the figures for `Cc1ccccc1S(=O)(=O)N1CC(O)CCC1C(=O)OCCc1cnccc1C(=O)OCc1ccncc1` (stereo not drawn) [Compound 4] were 13.3 nM, 1.06 and 91.4%.
`Cc1ccc(C(=O)C(=O)N2CC(O)SCC2C(=O)OCc2cc(C(=O)OCc3cccc(Br)c3)ccn2)cc1` (stereo not drawn) [Compound 6]: it took 0.75 nM to reach half-maximal inhibition (IC50), the “Hill Slope” value was 1.1 and the Emax was determined as 100%.
In the case of `O=C(C(=O)N1CC(O)OCC1C(=O)OCCC1CCCCC1C(=O)OCc1ccc(Cl)cc1)c1ccccn1` (stereo not drawn) [Compound 7], the IC50 was determined as 0.85 nM, the “Hill Slope” value was 0.9 and the maximal response (Emax) is 102%.
The like results for `Cc1ccccc1C(=O)C(=O)N1CC(O)OCC1C(=O)OCc1ccccc1C(=O)OCc1ccccc1Cl` (stereo not drawn) [Compound 8] were, in that order, 2.9 nM, 1.5 and 101%.
The like results for `Cc1ccc(S(=O)(=O)N2CC(O)CCC2C(=O)OCc2ccc(C(=O)OCc3ccccc3Cl)cn2)cc1` (stereo not drawn) [Compound 9] were, in that order, 19.4 nM, 0.8205 and 96.4%.
The like results for `Cc1ccc(S(=O)(=O)N2CC(O)CCC2C(=O)OCCc2cccc(C(=O)OCc3ccccc3Cl)c2)cc1` (stereo not drawn) [Compound 10] were, in that order, 1.5 nM, 0.8 and 98%.
For `O=C(C(=O)N1CC(O)CCC1C(=O)OCCC1CCCCC1C(=O)OCc1cccc(Br)c1)c1cc2ccccc2[nH]1` (stereo not drawn) [Compound 11], the midpoint of inhibition, the IC50, lay at 0.23 nM; the “Hill Slope” value amounted to 1; the maximal effect (Emax) is 100%.
Taken in the same sequence, the figures for `COc1ccc(COC(=O)c2ccc(CCOC(=O)C3C[Se]C(O)CN3C(=O)C(=O)c3ccncc3)nc2)cc1` (stereo not drawn) [Compound 12] were 0.41 nM, 1.1 and 101%.
The like results for `O=C(C(=O)N1CC(O)CCC1C(=O)OCCc1ccccc1C(=O)OCCc1ccccc1)c1ccccn1` (stereo not drawn) [Compound 13] were, in that order, 2.2 nM, 1.6 and 98%.
Taken in the same sequence, the figures for `O=C(OCC1CCCCC1)c1ccnc(CCOC(=O)C2C[Se]C(O)CN2C(=O)C(=O)c2cccc3ccccc23)c1` (stereo not drawn) [Compound 14] were 132 nM, 0.8 and 100%.
Turning to `O=C(OCC1CCCCC1)c1ccc(COC(=O)C2CCC(O)CN2C(=O)C(=O)c2cccc3ccccc23)nc1` (stereo not drawn) [Compound 15], the IC50 was determined as 5.99 nM, the “Hill Slope” value amounted to 0.8638 and the Emax was 106%.
Turning to `CC(COC(=O)c1cccc(COC(=O)C2COC(O)CN2C(=O)C(=O)C2=Cc3ccccc3C2)c1)c1ccccc1` (stereo not drawn) [Compound 16], the IC50 turned out to be 3.9 nM, the “Hill Slope” value was determined as 1 and the maximum response (Emax) came out at 99%.
On to `COc1cccc(COC(=O)c2cccc(CCOC(=O)C3CCC(O)CN3C(=O)C(=O)C3=Cc4ccccc4C3)c2)c1` (stereo not drawn) [Compound 17], for which half-maximal inhibition (IC50) was put at 0.58 nM, the “Hill Slope” value is recorded as 1.1 and the Emax came out at 102%.
The like results for `O=C(OCc1ccncc1)c1ccnc(CCOC(=O)C2CSC(O)CN2C(=O)C(=O)c2ccccn2)c1` (stereo not drawn) [Compound 18] were, in that order, 0.92 nM, 1 and 102%.
The like results for `O=C(C(=O)N1CC(O)SCC1C(=O)OCCC1CCCCC1C(=O)OCc1ccccn1)c1cc2ccccc2[nH]1` (stereo not drawn) [Compound 19] were, in that order, 2.6 nM, 1.6 and 96%.
Taken in the same sequence, the figures for `O=C(OCc1ccccc1Cl)c1ccnc(CCOC(=O)C2CCC(O)CN2C(=O)C(=O)c2ccccn2)c1` (stereo not drawn) [Compound 20] were 53.8 nM, 0.83 and 99.3%.
